Measured values from patent publication EP4393921B1, “NALIDINONE COMPOUND AS FGFR4 INHIBITOR AND USE THEREOF” (Wenzhou Medical University, priority 2021, dated 2023).
Like-named read-outs stand apart in the source and are kept apart here.

Legend:
FGFR1 = FGFR1 (Homo sapiens, UniProt P11362); assay: Mobility shift assay, FGFR1 kinase inhibition
Protocol: (§2) A specific experimental method is as follows.
(§3) (1) A 1×Kinase buffer was prepared. […] (3) A kinase solution with a 2.5 times final concentration was prepared with the 1×Kinase buffer. (4) 10 µL of the kinase solution with a 2.5 times final concentration was added to compound holes and positive control holes, respectively; and 10 µL of the 1×Kinase buffer was added to negative control holes. (5) Centrifugation was performed at 1,000 rpm for 30 s, the reaction plate was shaken for even mixing, and incubation was performed at room temperature for 60 min. (6) A mixed solution, with a 25/15 times final concentration, of ATP and Kinase substrate22 was prepared with the 1×Kinase buffer. (7) 15 µL of a mixed solution, with a 5/3 times final concentration, of ATP and a substrate was added to carry out an initial reaction. (8) A 384-well plate was centrifuged at 1,000 rpm for 30 s and shaken for even mixing, and incubation was performed at room temperature for 30 min. (9) 30 µL of a terminal detection solution was added to stop a kinase reaction, centrifugation was performed at 1,000 rpm for 30 s, and shaking was performed for even mixing. (10) A conversion rate was read with Caliper EZ Reader.
(§4) A dose-effect curve is fitted as follows.
(§5) With a concentration log value as an X axis and an inhibition rate percentage as a Y axis, the dose-effect curve was fitted by log (inhibitor) vs. response-Variable slope of analysis software GraphPad Prism 5, so as to obtain an IC50 value of each compound on enzyme activity. A calculation formula is: Y=Bottom+(Top-Bottom)/(1+10^((LogIC50-X)*HillSlope)).

FGFR2 = FGFR2 (Homo sapiens, UniProt P21802); assay: Mobility shift assay, FGFR2 kinase inhibition
Protocol: as §2, §3, §4, §5

FGFR4 = FGFR4 (Homo sapiens, UniProt P22455); assay: Mobility shift assay, FGFR4 kinase inhibition
Chain of FGFR4 (P22455 22-802): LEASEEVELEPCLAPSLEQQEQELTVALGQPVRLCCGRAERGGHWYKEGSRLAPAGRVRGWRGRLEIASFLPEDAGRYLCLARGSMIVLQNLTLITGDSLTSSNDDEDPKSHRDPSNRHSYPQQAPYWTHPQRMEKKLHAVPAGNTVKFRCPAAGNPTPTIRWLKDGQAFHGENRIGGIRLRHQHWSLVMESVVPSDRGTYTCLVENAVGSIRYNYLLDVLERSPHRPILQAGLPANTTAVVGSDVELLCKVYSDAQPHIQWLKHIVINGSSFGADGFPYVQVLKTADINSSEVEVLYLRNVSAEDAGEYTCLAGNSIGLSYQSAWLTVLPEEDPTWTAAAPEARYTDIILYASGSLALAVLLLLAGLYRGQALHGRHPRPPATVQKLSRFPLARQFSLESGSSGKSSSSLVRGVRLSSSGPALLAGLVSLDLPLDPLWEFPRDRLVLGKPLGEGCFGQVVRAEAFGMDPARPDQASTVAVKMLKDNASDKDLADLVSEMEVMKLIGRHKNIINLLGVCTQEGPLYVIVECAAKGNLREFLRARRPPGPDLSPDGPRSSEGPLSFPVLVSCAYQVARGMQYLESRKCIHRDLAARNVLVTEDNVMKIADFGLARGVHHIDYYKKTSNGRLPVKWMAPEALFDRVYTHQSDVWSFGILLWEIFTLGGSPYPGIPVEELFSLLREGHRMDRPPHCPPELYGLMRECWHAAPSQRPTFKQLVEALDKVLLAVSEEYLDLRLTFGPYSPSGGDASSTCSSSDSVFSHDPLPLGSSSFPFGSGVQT
Protocol: as §2, §3, §4, §5

FGFR3 = FGFR3 (Homo sapiens, UniProt P22607); assay: Mobility shift assay, FGFR3 kinase inhibition
Chain of FGFR3 (P22607 23-806): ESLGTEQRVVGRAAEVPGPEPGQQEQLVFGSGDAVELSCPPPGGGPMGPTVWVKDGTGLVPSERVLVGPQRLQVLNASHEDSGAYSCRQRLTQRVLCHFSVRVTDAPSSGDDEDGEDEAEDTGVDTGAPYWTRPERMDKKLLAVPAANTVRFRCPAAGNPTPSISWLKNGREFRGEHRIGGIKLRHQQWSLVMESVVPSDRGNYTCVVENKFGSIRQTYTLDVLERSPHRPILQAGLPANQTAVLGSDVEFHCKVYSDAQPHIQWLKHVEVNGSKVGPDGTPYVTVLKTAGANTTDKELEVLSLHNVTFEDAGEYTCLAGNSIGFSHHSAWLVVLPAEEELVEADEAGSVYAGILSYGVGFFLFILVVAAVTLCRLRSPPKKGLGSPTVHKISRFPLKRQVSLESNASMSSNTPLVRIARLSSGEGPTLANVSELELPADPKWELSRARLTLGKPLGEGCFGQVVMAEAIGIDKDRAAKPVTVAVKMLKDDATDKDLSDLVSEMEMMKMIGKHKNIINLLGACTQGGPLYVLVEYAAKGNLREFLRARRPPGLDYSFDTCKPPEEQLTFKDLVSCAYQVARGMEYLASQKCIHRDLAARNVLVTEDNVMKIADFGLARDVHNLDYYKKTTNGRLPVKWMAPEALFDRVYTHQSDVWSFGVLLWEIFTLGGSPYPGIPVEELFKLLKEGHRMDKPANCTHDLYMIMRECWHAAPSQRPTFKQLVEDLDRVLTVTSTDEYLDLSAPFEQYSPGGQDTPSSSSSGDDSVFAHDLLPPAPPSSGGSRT
Protocol: as §2, §3, §4, §5

[1] = test system: colon cancer cells HCT-116; assay: MTT proliferation assay on colon cancer cells HCT-116; assay type: cell-based; conditions: 3-100 µM, 72 h, dose-dependent, FIG. 4
Protocol: (§1) An MTT method was used for determination. An experimental method is briefly described as follows. A test compound 23 was first dissolved in DMSO to prepare a stock solution, and then the stock solution was subjected to gradient dilution with a corresponding cell culture medium to prepare a test sample, where a final concentration of the compound was in the range of 3-100 uM. Cells in a logarithmic culture stage were inoculated into a 96-well cell culture plate at an appropriate density, cultured overnight under corresponding conditions, and then continuously cultured for 72 h after the test compound sample was added. After the culture was completed, an appropriate volume of an MTT detection solution was added to each well, incubation was performed at 37°C for 1-4 h, and the culture medium was carefully discarded. […].

colon cancer cells SW480 = assay: MTT proliferation assay on colon cancer cells SW480; assay type: cell-based; conditions: 3-100 µM, 72 h, dose-dependent, FIG. 5
Protocol: as §1

colon cancer cells RKO = assay: MTT proliferation assay on colon cancer cells RKO; assay type: cell-based; conditions: 3-100 µM, 72 h, dose-dependent, FIG. 6
Protocol: as §1

Chain of FGFR1 (P11362 22-822): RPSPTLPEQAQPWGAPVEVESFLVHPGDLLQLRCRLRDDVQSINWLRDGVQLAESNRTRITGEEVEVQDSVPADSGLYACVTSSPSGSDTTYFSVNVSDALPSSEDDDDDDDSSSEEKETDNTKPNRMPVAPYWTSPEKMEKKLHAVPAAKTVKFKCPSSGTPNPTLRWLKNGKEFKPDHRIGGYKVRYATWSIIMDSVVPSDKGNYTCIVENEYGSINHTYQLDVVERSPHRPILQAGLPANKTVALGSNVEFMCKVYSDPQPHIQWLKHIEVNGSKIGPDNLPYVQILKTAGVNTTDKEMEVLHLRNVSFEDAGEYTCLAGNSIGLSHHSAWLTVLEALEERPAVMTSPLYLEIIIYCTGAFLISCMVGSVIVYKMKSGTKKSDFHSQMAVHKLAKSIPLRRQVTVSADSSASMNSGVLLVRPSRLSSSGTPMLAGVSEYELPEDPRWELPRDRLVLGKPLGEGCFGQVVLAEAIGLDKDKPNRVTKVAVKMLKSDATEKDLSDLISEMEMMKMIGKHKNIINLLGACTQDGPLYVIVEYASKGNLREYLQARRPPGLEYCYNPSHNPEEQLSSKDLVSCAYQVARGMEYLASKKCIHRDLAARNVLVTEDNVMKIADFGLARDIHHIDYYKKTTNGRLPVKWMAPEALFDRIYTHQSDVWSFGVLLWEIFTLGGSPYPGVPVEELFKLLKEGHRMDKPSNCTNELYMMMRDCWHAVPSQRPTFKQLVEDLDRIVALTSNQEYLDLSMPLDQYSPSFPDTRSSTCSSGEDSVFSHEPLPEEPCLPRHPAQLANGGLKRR
Chain of FGFR2 (P21802 22-821): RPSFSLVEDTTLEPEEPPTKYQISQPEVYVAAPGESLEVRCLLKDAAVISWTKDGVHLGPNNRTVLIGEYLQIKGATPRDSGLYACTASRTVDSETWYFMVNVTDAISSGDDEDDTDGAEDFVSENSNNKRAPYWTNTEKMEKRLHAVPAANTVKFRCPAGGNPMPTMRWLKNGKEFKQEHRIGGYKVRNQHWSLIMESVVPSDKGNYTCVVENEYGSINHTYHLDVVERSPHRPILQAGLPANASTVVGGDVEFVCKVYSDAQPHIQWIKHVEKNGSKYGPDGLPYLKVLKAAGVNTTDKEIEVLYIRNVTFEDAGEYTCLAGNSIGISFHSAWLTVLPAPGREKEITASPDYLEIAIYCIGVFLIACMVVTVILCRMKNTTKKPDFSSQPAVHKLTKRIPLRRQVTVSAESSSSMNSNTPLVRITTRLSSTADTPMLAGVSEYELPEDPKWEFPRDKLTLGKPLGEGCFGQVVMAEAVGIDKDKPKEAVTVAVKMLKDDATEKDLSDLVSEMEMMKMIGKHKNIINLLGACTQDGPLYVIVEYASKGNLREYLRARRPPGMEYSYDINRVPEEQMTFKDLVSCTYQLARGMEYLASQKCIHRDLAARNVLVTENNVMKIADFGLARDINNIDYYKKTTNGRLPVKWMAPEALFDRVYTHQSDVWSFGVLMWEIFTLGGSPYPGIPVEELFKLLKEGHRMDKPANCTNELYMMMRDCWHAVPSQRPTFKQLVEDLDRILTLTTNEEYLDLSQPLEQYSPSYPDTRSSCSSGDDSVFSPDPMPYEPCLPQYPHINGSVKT

| SMILES | IC50 (FGFR1) [nM] | IC50 (FGFR2) [µM] | IC50 (FGFR4) [µM] | IC50 (FGFR3) [µM] | inhibition of proliferation of colon cancer cells HCT-116 [1] | inhibition of proliferation of colon cancer cells SW480 (colon cancer cells SW480) | inhibition of proliferation of colon cancer cells RKO (colon cancer cells RKO) | IC50 (FGFR1; read-out: IC50 (nM) FGFR1, Mobility shift assay) [nM] |
| --- | --- | --- | --- | --- | --- | --- | --- | --- |
| C=CC(=O)Nc1cccc(C)c1Nc1cc2c(cn1)cc(-c1c(Cl)c(OC)cc(OC)c1Cl)c(=O)n2CCCN1CCN(C)CC1 [Compound 25, N-(2-((3-(2,6-dichloro-3,5-dimethoxyphenyl)-2-oxo-1-(3-(4-methylpiperazin-1-yl)propyl)-1,2-2H-1,6-naphthyridin-7-yl)amino)-3-methylphenyl)acrylamide] | > 5000 | > 5 | 0.0058 | > 5 |  |  |  |  |
| C=CC(=O)Nc1cccc(C)c1Nc1cc2c(cn1)cc(-c1cc(OC)cc(OC)c1)c(=O)n2CCCO [Compound 29] | > 5000 | > 5 | 0.0315 | > 5 |  |  |  |  |
| C=CC(=O)Nc1cccc(C)c1Nc1cc2c(cn1)cc(-c1c(Cl)c(OC)cc(OC)c1Cl)c(=O)n2CCCN1CCOCC1 [Compound 27, N-(2-((3-(2,6-dichloro-3,5-dimethoxyphenyl)-1-(3-morpholinopropyl)-2-oxo-1,2-2H-1,6-naphthyridin-7-yl)amino)-3-methylphenyl)acrylamide] | > 5000 | > 5 | 0.0044 | > 5 |  |  |  |  |
| C=CC(=O)Nc1cccc(C)c1Nc1cc2c(cn1)cc(-c1c(Cl)c(OC)cc(OC)c1Cl)c(=O)n2CCCO [Compound 30, N-(2-((3-(2,6-dichloro-3,5-dimethoxyphenyl)-1-(3-hydroxypropyl)-2-oxo-1,2-2H-1,6-naphthyridin-7-yl)amino)-3-methylphenyl)acrylamide] | > 5000 | > 5 |  | > 5 |  |  |  |  |
| C=CC(=O)Nc1cccc(C)c1Nc1cc2c(cn1)cc(-c1cc(OC)cc(OC)c1)c(=O)n2CCCN1CCN(C)CC1 [Compound 24, N-(2-((3-(3,5-dimethoxyphenyl)-2-oxo-1-(3-(4-methylpiperazin-1-yl)propyl)-1,2-dihydro-1,6-naphthyridin-7-yl)amino)-3-methylphenyl)acrylamide] | > 5000 | > 5 | 0.0344 | > 5 |  |  |  |  |
| C=CC(=O)Nc1cccc(C)c1Nc1cc2c(cn1)cc(-c1c(Cl)c(OC)cc(OC)c1Cl)c(=O)n2CCCN1CCCCC1 [Compound 23, N-(2-((3-(2,6-dichloro-3,5-dimethoxyphenyl)-2-oxo-1-(3-(piperidin-1-yl)propyl)-1,2-2H-1,6-naphthyridin-7-yl)amino)-3-methylphenyl)acrylamide] | > 5000 | > 5 | 0.0037 | > 5 | can inhibit proliferation | can inhibit proliferation | can inhibit proliferation |  |
| C=CC(=O)Nc1cccc(C)c1Nc1ncc2cc(-c3c(Cl)c(OC)cc(OC)c3Cl)ccc2n1 [BLU9931, reference compound] |  | 0.436 |  | 0.193 |  |  |  | 582 |
| C=CC(=O)Nc1cccc(C)c1Nc1cc2c(cn1)cc(-c1cc(OC)cc(OC)c1)c(=O)n2CCCN1CCCCC1 [Compound 22, N-(2-((3-(3,5-dimethoxyphenyl)-2-oxo-1-(3-(piperidin-1-yl)propyl)-1,2-dihydro-1,6-naphthyridin-7-yl)amino)-3-methylphenyl)acrylamide] | > 5000 | > 5 | 0.0098 | > 5 |  |  |  |  |
| C=CC(=O)Nc1cccc(C)c1Nc1cc2c(cn1)cc(-c1cc(OC)cc(OC)c1)c(=O)n2CCCN1CCOCC1 [Compound 26, N-(2-((3-(3,5-dimethoxyphenyl)-1-(3-morpholinopropyl)-2-oxo-1,2-dihydro-1,6-naphthyridin-7-yl)amino)-3-methylphenyl)acrylamide] | > 5000 | > 5 |  | > 5 |  |  |  |  |
